{"source": "ChEMBL document CHEMBL1201862", "about": "“PubChem BioAssay data set” (2004)", "experiment_in_all_cases": "NCI-60 cell line screen, 48 h", "key": {"CCRF-CEM": {"test_system": "CCRF-CEM"}, "HOP-62": {"test_system": "HOP-62"}, "M14": {"test_system": "M14"}, "SF-295": {"test_system": "SF-295"}, "Malme-3M": {"test_system": "Malme-3M"}, "RPMI-8226": {"test_system": "RPMI-8226"}, "DMS-114": {"test_system": "DMS-114"}, "SF-539": {"test_system": "SF-539"}, "786-0": {"test_system": "786-0"}, "M19-MEL": {"test_system": "M19-MEL"}, "LOX IMVI": {"test_system": "LOX IMVI"}, "U-251": {"test_system": "U-251"}, "SNB-19": {"test_system": "SNB-19"}, "OVCAR-8": {"test_system": "OVCAR-8"}, "SNB-75": {"test_system": "SNB-75"}, "SR": {"test_system": "SR"}, "ACHN": {"test_system": "ACHN"}, "SNB-78": {"test_system": "SNB-78"}, "NCI-H460": {"test_system": "NCI-H460"}, "HCT-116": {"test_system": "HCT-116"}, "EKVX": {"test_system": "EKVX"}, "SF-268": {"test_system": "SF-268"}, "HL-60": {"test_system": "HL-60"}, "UO-31": {"test_system": "UO-31"}, "IGROV-1": {"test_system": "IGROV-1"}, "A498": {"test_system": "A498"}, "KM-20L2": {"test_system": "KM-20L2"}, "NCI-H23": {"test_system": "NCI-H23"}, "MOLT-4": {"test_system": "MOLT-4"}, "SK-MEL-2": {"test_system": "SK-MEL-2"}, "LXFL 529": {"test_system": "LXFL 529"}, "SN12C": {"test_system": "SN12C"}, "HOP-18": {"test_system": "HOP-18"}, "TK-10": {"test_system": "TK-10"}, "DMS-273": {"test_system": "DMS-273"}, "HT-29": {"test_system": "HT-29"}, "HCT-15": {"test_system": "HCT-15"}, "OVCAR-5": {"test_system": "OVCAR-5"}, "OVCAR-4": {"test_system": "OVCAR-4"}, "SK-MEL-5": {"test_system": "SK-MEL-5"}, "COLO 205": {"test_system": "COLO 205"}, "UACC-62": {"test_system": "UACC-62"}, "RXF 393": {"test_system": "RXF 393"}, "NCI-H522": {"test_system": "NCI-H522"}, "OVCAR-3": {"test_system": "OVCAR-3"}, "KM12": {"test_system": "KM12"}, "K562": {"test_system": "K562"}, "SW-620": {"test_system": "SW-620"}, "UACC-257": {"test_system": "UACC-257"}, "SK-MEL-28": {"test_system": "SK-MEL-28"}, "A549": {"test_system": "A549"}, "CAKI-1": {"test_system": "CAKI-1"}, "HOP-92": {"test_system": "HOP-92"}, "DLD-1": {"test_system": "DLD-1"}, "NCI-H226": {"test_system": "NCI-H226"}, "HCC 2998": {"test_system": "HCC 2998"}, "SK-OV-3": {"test_system": "SK-OV-3"}}, "note": "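Grown in 96-well plates, cells were treated for 48 hours with each compound at five concentrations. Insufficient inhibition: endpoint recorded as highest concentration tested. Here, GI50 denotes the concentration required for 50% inhibition of growth.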 The source made the active and inactive calls. Rule as the data show it: active = GI50 up to about 1.1 µM and inactive = higher."}
{"smiles": "O=C1/C(=C/c2ccccc2)CN(C(=O)Oc2ccccc2)C/C1=C\\c1ccccc1", "values": [{"measurement": "GI50", "setting": "CCRF-CEM", "value": "6.44 µM (inactive)"}, {"measurement": "GI50", "setting": "HOP-62", "value": "11.2 µM (inactive)"}, {"measurement": "GI50", "setting": "M14", "value": "21.8 µM (inactive)"}, {"measurement": "GI50", "setting": "SF-295", "value": "11.2 µM (inactive)"}, {"measurement": "GI50", "setting": "Malme-3M", "value": "> 100 µM (inactive)"}, {"measurement": "GI50", "setting": "RPMI-8226", "value": "0.221 µM (active)"}, {"measurement": "GI50", "setting": "DMS-114", "value": "17.4 µM (inactive)"}, {"measurement": "GI50", "setting": "SF-539", "value": "5.36 µM (inactive)"}, {"measurement": "GI50", "setting": "786-0", "value": "10.5 µM (inactive)"}, {"measurement": "GI50", "setting": "M19-MEL", "value": "65.5 µM (inactive)"}, {"measurement": "GI50", "setting": "LOX IMVI", "value": "5.01 µM (inactive)"}, {"measurement": "GI50", "setting": "U-251", "value": "18.7 µM (inactive)"}, {"measurement": "GI50", "setting": "SNB-19", "value": "13.2 µM (inactive)"}, {"measurement": "GI50", "setting": "OVCAR-8", "value": "28.2 µM (inactive)"}, {"measurement": "GI50", "setting": "SNB-75", "value": "4.91 µM (inactive)"}, {"measurement": "GI50", "setting": "SR", "value": "7.19 µM (inactive)"}, {"measurement": "GI50", "setting": "ACHN", "value": "21.9 µM (inactive)"}, {"measurement": "GI50", "setting": "SNB-78", "value": "20.4 µM (inactive)"}, {"measurement": "GI50", "setting": "NCI-H460", "value": "52.1 µM (inactive)"}, {"measurement": "GI50", "setting": "HCT-116", "value": "6.81 µM (inactive)"}, {"measurement": "GI50", "setting": "EKVX", "value": "62.2 µM (inactive)"}, {"measurement": "GI50", "setting": "SF-268", "value": "24.5 µM (inactive)"}, {"measurement": "GI50", "setting": "HL-60", "value": "1.7 µM (inactive)"}, {"measurement": "GI50", "setting": "UO-31", "value": "34.3 µM (inactive)"}, {"measurement": "GI50", "setting": "IGROV-1", "value": "21.6 µM (inactive)"}, {"measurement": "GI50", "setting": "A498", "value": "57.4 µM (inactive)"}, {"measurement": "GI50", "setting": "KM-20L2", "value": "> 100 µM (inactive)"}, {"measurement": "GI50", "setting": "NCI-H23", "value": "33 µM (inactive)"}, {"measurement": "GI50", "setting": "MOLT-4", "value": "9.29 µM (inactive)"}, {"measurement": "GI50", "setting": "SK-MEL-2", "value": "15.6 µM (inactive)"}, {"measurement": "GI50", "setting": "LXFL 529", "value": "50.6 µM (inactive)"}, {"measurement": "GI50", "setting": "SN12C", "value": "65.3 µM (inactive)"}, {"measurement": "GI50", "setting": "HOP-18", "value": "> 100 µM (inactive)"}, {"measurement": "GI50", "setting": "TK-10", "value": "17 µM (inactive)"}, {"measurement": "GI50", "setting": "DMS-273", "value": "23.1 µM (inactive)"}, {"measurement": "GI50", "setting": "HT-29", "value": "> 100 µM (inactive)"}, {"measurement": "GI50", "setting": "HCT-15", "value": 40.6, "unit": "µM"}, {"measurement": "GI50", "setting": "OVCAR-5", "value": "> 100 µM (inactive)"}, {"measurement": "GI50", "setting": "OVCAR-4", "value": "96.2 µM (inactive)"}, {"measurement": "GI50", "setting": "SK-MEL-5", "value": "> 100 µM (inactive)"}, {"measurement": "GI50", "setting": "COLO 205", "value": "> 100 µM (inactive)"}, {"measurement": "GI50", "setting": "UACC-62", "value": "46.3 µM (inactive)"}, {"measurement": "GI50", "setting": "RXF 393", "value": "11.1 µM (inactive)"}, {"measurement": "GI50", "setting": "NCI-H522", "value": "23.2 µM (inactive)"}, {"measurement": "GI50", "setting": "OVCAR-3", "value": "99.5 µM (inactive)"}, {"measurement": "GI50", "setting": "KM12", "value": "> 100 µM (inactive)"}, {"measurement": "GI50", "setting": "K562", "value": "7.13 µM (inactive)"}, {"measurement": "GI50", "setting": "SW-620", "value": "20.2 µM (inactive)"}, {"measurement": "GI50", "setting": "UACC-257", "value": "> 100 µM (inactive)"}, {"measurement": "GI50", "setting": "SK-MEL-28", "value": "> 100 µM (inactive)"}, {"measurement": "GI50", "setting": "A549", "value": "> 100 µM (inactive)"}]}
{"smiles": "Oc1cccc(C2SCc3nc4ccccc4n32)c1", "note": "(stereo not given)", "values": [{"measurement": "GI50", "setting": "CAKI-1", "value": "58.2 µM (inactive)"}, {"measurement": "GI50", "setting": "CCRF-CEM", "value": "48.2 µM (inactive)"}, {"measurement": "GI50", "setting": "SF-295", "value": "39.1 µM (inactive)"}, {"measurement": "GI50", "setting": "Malme-3M", "value": "41.1 µM (inactive)"}, {"measurement": "GI50", "setting": "RPMI-8226", "value": "39.3 µM (inactive)"}, {"measurement": "GI50", "setting": "HOP-92", "value": "47.5 µM (inactive)"}, {"measurement": "GI50", "setting": "DMS-114", "value": "31 µM (inactive)"}, {"measurement": "GI50", "setting": "SF-539", "value": "> 100 µM (inactive)"}, {"measurement": "GI50", "setting": "786-0", "value": "> 100 µM (inactive)"}, {"measurement": "GI50", "setting": "U-251", "value": "84.5 µM (inactive)"}, {"measurement": "GI50", "setting": "SNB-19", "value": "> 100 µM (inactive)"}, {"measurement": "GI50", "setting": "OVCAR-8", "value": "96.2 µM (inactive)"}, {"measurement": "GI50", "setting": "SNB-75", "value": "4.17 µM (inactive)"}, {"measurement": "GI50", "setting": "DLD-1", "value": "44.3 µM (inactive)"}, {"measurement": "GI50", "setting": "SR", "value": "48.8 µM (inactive)"}, {"measurement": "GI50", "setting": "ACHN", "value": "33.8 µM (inactive)"}, {"measurement": "GI50", "setting": "SNB-78", "value": "> 100 µM (inactive)"}, {"measurement": "GI50", "setting": "NCI-H460", "value": "60.7 µM (inactive)"}, {"measurement": "GI50", "setting": "HCT-116", "value": "67.9 µM (inactive)"}, {"measurement": "GI50", "setting": "EKVX", "value": "43.5 µM (inactive)"}, {"measurement": "GI50", "setting": "SF-268", "value": "73.6 µM (inactive)"}, {"measurement": "GI50", "setting": "HL-60", "value": "25.5 µM (inactive)"}, {"measurement": "GI50", "setting": "UO-31", "value": "35.6 µM (inactive)"}, {"measurement": "GI50", "setting": "A498", "value": "13.2 µM (inactive)"}, {"measurement": "GI50", "setting": "NCI-H226", "value": "21.2 µM (inactive)"}, {"measurement": "GI50", "setting": "NCI-H23", "value": "38.8 µM (inactive)"}, {"measurement": "GI50", "setting": "MOLT-4", "value": "31.6 µM (inactive)"}, {"measurement": "GI50", "setting": "SK-MEL-2", "value": "76 µM (inactive)"}, {"measurement": "GI50", "setting": "HCC 2998", "value": "> 100 µM (inactive)"}, {"measurement": "GI50", "setting": "LXFL 529", "value": "40.6 µM (inactive)"}, {"measurement": "GI50", "setting": "SN12C", "value": "82.2 µM (inactive)"}, {"measurement": "GI50", "setting": "HOP-18", "value": "0.42 µM (active)"}, {"measurement": "GI50", "setting": "TK-10", "value": "> 100 µM (inactive)"}, {"measurement": "GI50", "setting": "DMS-273", "value": "47.1 µM (inactive)"}, {"measurement": "GI50", "setting": "HT-29", "value": "> 100 µM (inactive)"}, {"measurement": "GI50", "setting": "OVCAR-5", "value": "26.2 µM (inactive)"}, {"measurement": "GI50", "setting": "SK-MEL-5", "value": "14.8 µM (inactive)"}, {"measurement": "GI50", "setting": "COLO 205", "value": "> 100 µM (inactive)"}, {"measurement": "GI50", "setting": "UACC-62", "value": "77.1 µM (inactive)"}, {"measurement": "GI50", "setting": "RXF 393", "value": "78.7 µM (inactive)"}, {"measurement": "GI50", "setting": "NCI-H522", "value": "38.3 µM (inactive)"}, {"measurement": "GI50", "setting": "OVCAR-3", "value": "45.6 µM (inactive)"}, {"measurement": "GI50", "setting": "KM12", "value": "73.3 µM (inactive)"}, {"measurement": "GI50", "setting": "K562", "value": "16.9 µM (inactive)"}, {"measurement": "GI50", "setting": "SW-620", "value": "> 100 µM (inactive)"}, {"measurement": "GI50", "setting": "UACC-257", "value": "31.7 µM (inactive)"}, {"measurement": "GI50", "setting": "SK-MEL-28", "value": "59.4 µM (inactive)"}, {"measurement": "GI50", "setting": "SK-OV-3", "value": "> 100 µM (inactive)"}, {"measurement": "GI50", "setting": "A549", "value": "54.7 µM (inactive)"}]}
